Measured values as given in patent US10052306B2 (LUC THERAPEUTICS, INC., priority 2013, dated 2018).

Molecular target: NR1/NR2B (Homo sapiens (Human), UniProt Q05586+Q13224)
Assay: Cell assay: FDSS Ca2+ influx inhibition in HEK293 cells expressing NR1/NR2B;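 also: Fluo-8 Ca2+ signal read on Hamamatsu FDSS 6000 after glutamate, glycine and Ca2+ challenge following 10 min compound preincubation, end/baseline fluorescence ratio compared with MK801 control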
[1] = Binned Activity, HEK293 cells expressing NR1/NR2B, Ca2+ influx, binned NR2B NAM IC50
[2] = NR2B NAM IC50, HEK293 cells expressing NR1/NR2B, Ca2+ influx

Chain of NR1/NR2B (Q13224 27-1484, other chains not shown): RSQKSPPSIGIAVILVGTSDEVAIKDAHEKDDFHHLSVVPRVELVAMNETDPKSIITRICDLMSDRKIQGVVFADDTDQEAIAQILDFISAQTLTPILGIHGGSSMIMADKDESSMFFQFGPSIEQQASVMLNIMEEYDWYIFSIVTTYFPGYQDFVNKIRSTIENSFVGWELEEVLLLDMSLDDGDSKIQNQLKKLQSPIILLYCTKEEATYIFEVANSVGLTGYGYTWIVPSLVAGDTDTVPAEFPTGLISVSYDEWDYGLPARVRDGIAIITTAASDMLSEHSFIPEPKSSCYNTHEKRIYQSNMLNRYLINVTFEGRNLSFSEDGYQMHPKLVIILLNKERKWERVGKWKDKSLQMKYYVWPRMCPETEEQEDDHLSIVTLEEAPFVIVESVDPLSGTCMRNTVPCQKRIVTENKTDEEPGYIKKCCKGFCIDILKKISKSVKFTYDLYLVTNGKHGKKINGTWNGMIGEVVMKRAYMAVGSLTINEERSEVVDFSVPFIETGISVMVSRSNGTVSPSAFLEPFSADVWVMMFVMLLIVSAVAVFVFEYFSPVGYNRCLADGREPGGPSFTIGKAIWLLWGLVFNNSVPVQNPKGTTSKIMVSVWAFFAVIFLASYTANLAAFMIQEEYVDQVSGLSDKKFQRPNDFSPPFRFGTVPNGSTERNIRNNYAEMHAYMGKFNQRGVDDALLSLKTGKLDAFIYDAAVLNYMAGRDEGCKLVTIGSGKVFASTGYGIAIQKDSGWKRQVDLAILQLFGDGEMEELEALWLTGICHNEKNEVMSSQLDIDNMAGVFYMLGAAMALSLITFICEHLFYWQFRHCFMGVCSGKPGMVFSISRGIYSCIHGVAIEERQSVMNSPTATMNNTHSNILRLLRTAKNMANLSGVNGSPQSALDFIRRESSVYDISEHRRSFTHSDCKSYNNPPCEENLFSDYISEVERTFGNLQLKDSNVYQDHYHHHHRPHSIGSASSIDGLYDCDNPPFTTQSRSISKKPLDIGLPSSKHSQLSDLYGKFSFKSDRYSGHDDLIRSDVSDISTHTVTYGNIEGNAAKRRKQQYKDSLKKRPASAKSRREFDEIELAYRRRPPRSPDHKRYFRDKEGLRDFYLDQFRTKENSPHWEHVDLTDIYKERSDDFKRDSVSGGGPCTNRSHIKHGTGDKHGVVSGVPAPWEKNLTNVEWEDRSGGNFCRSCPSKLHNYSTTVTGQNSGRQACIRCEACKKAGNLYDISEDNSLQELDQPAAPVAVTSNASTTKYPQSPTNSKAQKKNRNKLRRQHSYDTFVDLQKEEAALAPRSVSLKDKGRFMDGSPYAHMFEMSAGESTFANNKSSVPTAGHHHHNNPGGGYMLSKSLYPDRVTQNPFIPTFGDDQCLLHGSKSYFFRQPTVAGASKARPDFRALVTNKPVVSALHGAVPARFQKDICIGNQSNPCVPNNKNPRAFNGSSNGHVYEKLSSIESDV
Procedure: Cell Culture and plating: HEK293 cells expressing NR1/NR2B (Chantest, Cleveland, Ohio) were grown to 70-80% confluency as an adherent monolayer in standard tissue culture flasks at 37° C., 5% CO2 per supplier's instructions. NR2B expression was induced by incubation with 0.3-0.4 μg/ml tetracycline in the presence of 4 mM ARL-15896 for 18-24 hours under the same growth conditions, then transferred to 30° C. for another 3-5 hours.
After induction, cell culture medium was removed and cells were rinsed once with Ca^2+ and Mg^2+-free Dulbecco's phosphate buffered saline. Cells were then removed from the flask using TrypLE™ Express (Life Technologies) according to the manufacturer's instructions and collected to 50 ml centrifuge tubes. Following two washes in Ca^2+/Mg^2+-free HBSS with 20 mM HEPES (HHnoCa), cells were counted and viability assessed using trypan blue. To load cells with Ca^2+-sensitive dye, they were resuspended in fluo-8 plus Component B (AAT Bioquest Products) diluted in HHnoCa and incubated 15 minutes at 37° C., followed by 30 minutes at room temp (in dark). Cells were then washed and resuspended in HHnoCa to remove extracellular dye and plated in 384-well plates (Falcon, uncoated) at 20,000-30,000 cells/well in a final volume of 25 μl/well.
FDSS Assay: To each well of the plate, 10 μL test compound, control (MK801) or HHnoCa buffer was added to a final concentration of 10 μM with a final concentration of DMSO of 0.1%. Following 10 minutes pre-incubation in the dark, plates are loaded onto the Hamamatsu FDSS 6000. After collecting baseline fluorescence images, 3 μM glutamate, 3 glycine, and 1 mM Ca^2+ in HHnoCa buffer is added to each well, and Ca^2+ is recorded for 3 minutes. Data were processed by computing ratio of fluorescence at the end of data collection to baseline fluorescence to assess degree of Ca′ influx inhibition relative to that observed in MK801.

| IC50 [1] | IC50 [2] | SMILES | IC50 (Binned Activity) | IC50 (NR2B NAM IC50) |
| --- | --- | --- | --- | --- |
| > 10000 nM | ≥ 10000 nM | O=C(Nc1cccc(C(F)(F)F)c1)N1C[C@@H]2C[C@@](O)(c3ccc(F)cc3)C[C@@H]2C1 [Example 38] |  |  |
| > 10000 nM | ≥ 10000 nM | Cc1ccccc1[C@]1(O)C[C@H]2CN(C(C)C(O)c3ccc(O)cc3)C[C@H]2C1 (mixture of isomers) [Example 95, rac-2-[1-hydroxy-1-(4-hydroxyphenyl)propan-2-yl]-5-(2-methylphenyl)-octahydrocyclopenta[c] pyrrol-5-ol] |  |  |
|  | 20.1 nM | Oc1ccc(C(O)CN2C[C@H]3C[C@H](Cc4ccccc4)C[C@H]3C2)cc1F (mixture of isomers) [Example 302, rac-4-{2-[(3aR,5R,6aS)-5-benzyl-octahydrocyclopenta[c]pyrrol-2-yl]-1-hydroxyethyl}-2-fluorophenol] |  |  |
| > 10000 nM |  | COc1cccc(NC(=O)N2C[C@@H]3C[C@@](O)(c4ccc(F)cc4)C[C@@H]3C2)c1 [Example 37] |  |  |
| > 10000 nM | ≥ 10000 nM | CC(C)(O)c1ccc(C(O)CN2C[C@@H]3C[C@@](O)(Cc4ccccc4)C[C@@H]3C2)cc1 (mixture of isomers) [Example 139, rac-(3aR,5r,6aS)-5-benzyl-2-(2-hydroxy-2-(4-(2-hydroxypropan-2-yl)phenyl)ethyl)octahydro-cyclopenta[c]pyrrol-5-ol] |  |  |
| > 10000 nM |  | O=C(Nc1ccc(F)cc1)N1C[C@@H]2C[C@@](O)(c3ccc(F)cc3)C[C@@H]2C1 [Example 35, N,5-bis(4-fluorophenyl)-5-hydroxy-octahydrocyclopenta[c] pyrrole-2-carboxamide] |  |  |
| < 100 nM | 13.9 nM | Oc1ccc(C(O)CN2C[C@H]3CC(Cc4ccccc4)C[C@H]3C2)cc1 (mixture of isomers) [Example 300, rac-4-(2-((3aR,6aS)-5-benzylhexahydrocyclo-penta[c]pyrrol-2(1H)-yl)-1-hydroxyethyl) phenol] |  |  |
| > 10000 nM | ≥ 10000 nM | N#Cc1cccc(NC(=O)N2C[C@@H]3C[C@@](O)(Cc4ccccc4)C[C@@H]3C2)c1 [Example 123, (3aR,5r,6aS)-5-benzyl-N-(3-cyanophenyl)-5-hydroxyhexahydrocyclo-penta[c]pyrrole-2(1H)-carboxamide] |  |  |
|  | 382 nM | COc1cccc(C[C@]2(O)C[C@H]3CN(CC(O)c4ccc(O)c(F)n4)C[C@H]3C2)c1 (mixture of isomers) [Example 201, rac-(3aR,5r,6aS)-2-(2-(6-fluoro-5-hydroxypyridin-2-yl)-2-hydroxyethyl)-5-(3-methoxy-benzyl)octahydro-cyclopenta[c]pyrrol-5-ol] |  |  |
|  |  | CC(C(=O)c1ccc(O)cc1)N1C[C@H]2CC(CCc3ccccc3)C[C@H]2C1 (mixture of isomers) [Example 322, rac-1-(4-hydroxy-phenyl)2-[(5R)-5-(2-phenylethyl)-octahydrocyclopenta[c]pyrrol-2-yl]propan-1-one] | 100 to 1000 nM | 533 nM |
| 100 to 1000 nM | 448 nM | Oc1ccc(C(O)CN2C[C@@H]3C[C@](F)(Cc4ccccc4)C[C@@H]3C2)cc1 (mixture of isomers) [Example 311, rac-4-(2-((3aR,5s,6aS)-5-benzyl-5-fluorohexahydrocyclo-penta[c]pyrrol-2(1H)-yl)-1-hydroxyethyl) phenol] |  |  |
|  | 10500 nM | CC(C(O)c1ccc(O)cc1)N1C[C@@H]2C[C@@](O)(c3ccc(C(C)(C)C)cc3)C[C@@H]2C1 (mixture of isomers) [Example 96, rac-5-(4-tert-butylphenyl)-2-[1-hydroxy-1-(4-hydroxyphenyl)propan-2-yl]-octahydrocyclopenta[c] pyrrol-5-ol] |  |  |
|  | 22.1 nM | Oc1ccc(C(O)CN2C[C@@H]3C[C@@](O)(Cc4ccc(F)cc4)C[C@@H]3C2)cc1F (mixture of isomers) [Example 171, rac-(3aR,5r,6aS)-2-(2-(3-fluoro-4-hydroxyphenyl)-2-hydroxyethyl)-5-(4-fluorobenzyl)octahydro-cyclopenta[c]pyrrol-5-ol] |  |  |
|  | 25.7 nM | Oc1ccc(C(O)CN2C[C@@H]3C[C@@](O)(Cc4cccs4)C[C@@H]3C2)nc1 (mixture of isomers) [Example 215, rac-2-(2-hydroxy-2-(5-hydroxypyridin-2-yl)ethyl)-5-(thiophen-2-ylmethyl)octahydrocyclo-penta[c]pyrrol-5-ol] |  |  |
|  | 66 nM | COc1cccc(C[C@]2(O)C[C@H]3CN(CC(O)c4ccc(O)cn4)C[C@H]3C2)c1 (mixture of isomers) [Example 196, rac-((3aR,r,6aS)-2-(2-hydroxy-2-(5-hydroxypyridin-2-yl)ethyl)-5-(3-meth-oxybenzyl)octahydro-cyclopenta[c]pyrrol-5-ol] |  |  |
| > 10000 nM | ≥ 10000 nM | COc1cccc([C@]2(O)C[C@H]3CN(CC(O)c4cccc(C(F)(F)F)c4)C[C@H]3C2)c1 (mixture of isomers) [Example 73, rac-2-{2-hydroxy-2-[3-(trifluoromethyl)phenyl]ethyl}-5-(3-methoxyphenyl)-octahydrocyclopenta[c] pyrrol-5-ol] |  |  |
| > 10000 nM | ≥ 10000 nM | CC(C)(O)c1ccc(C(O)CN2C[C@@H]3C[C@@](O)(c4ccccc4)C[C@@H]3C2)cc1 (mixture of isomers) [Example 69, rac-2-(2-hydroxy-2-(4-(2-hydroxypropan-2-yl)phenyl)ethyl)-5-phenyloctahydrocyclo-penta[c]pyrrol-5-ol] |  |  |
|  | 12800 nM | CC(C(O)c1ccc(O)cc1)N1C[C@@H]2C[C@](F)(Cc3ccccc3)C[C@@H]2C1 (mixture of isomers) [Example 318, rac-4-(2-((3aR,5s,6aS)-5-benzyl-5-fluoro-hexahydrocyclopen-ta[c]pyrrol-2(1H)-yl)-1-hydroxypropyl)phenol] |  |  |
|  | 476 nM | CO[C@@]1(Cc2ccccc2)C[C@H]2CN(CC(O)c3ccc(O)c(F)n3)C[C@H]2C1 (mixture of isomers) [Example 198, rac-6-(2-((3aR,5r,6aS)-5-benzyl-5-methoxyhexahydrocyclo-penta[c]pyrrol-2(1H)-yl)-1-hydroxyethyl)-2-fluoropyridin-3-ol] |  |  |
| > 10000 nM | ≥ 10000 nM | COc1cccc(C(O)CN2C[C@H]3C[C@@H](c4ccccc4)C[C@H]3C2)c1 (mixture of isomers) [Example 117, rac-1-(3-methoxyphenyl)-2-{5-phenyl-octahydrocyclopenta[c]pyrrol-2-yl}ethan-1-ol] |  |  |
|  | 669 nM | Oc1ccc(C(O)CN2C[C@@H]3C[C@@](O)(Cc4ccccn4)C[C@@H]3C2)cc1 (mixture of isomers) [Example 232, rac-(3aR,5r,6aS)-2-(2-hydroxy-2-(4-hydroxyphenyl)ethyl)-5-(pyridin-2-ylmethyl)octahydrocyclo-penta[c]pyrrol-5-ol] |  |  |
| > 10000 nM |  | COc1cccc([C@]2(O)C[C@H]3CN(C(=O)Nc4ccc(Cl)c(C(F)(F)F)c4)C[C@H]3C2)c1 [Example 34, N-[4-chloro-3-(trifluoromethyl)phenyl]-5-hydroxy-5-(3-methoxyphenyl)-octahydrocyclopenta[c] pyrrole-2-carboxamide] |  |  |
|  | 22.4 nM | Oc1ccc(C(O)CN2C[C@H]3CC(Cc4ccccc4)C[C@H]3C2)nc1 (mixture of isomers) [Example 298, rac-6-(2-{5-benzyl-octahydrocyclopenta[c]pyrrol-2-yl}-1-hydroxyethyl)pyridin-3-ol] |  |  |
| > 10000 nM | ≥ 10000 nM | COc1cccc([C@]2(O)C[C@H]3CN(C(C)C(O)c4ccc(O)cc4)C[C@H]3C2)c1 (mixture of isomers) [Example 78, rac-2-(1-hydroxy-1-(4-hydroxyphenyl)propan-2-yl)-5-(3-methoxy-phenyl)octahydro-cyclopenta[c]pyrrol-5-ol] |  |  |
| > 10000 nM | ≥ 10000 nM | Cc1ccccc1[C@]1(O)C[C@H]2CN(C(=O)Nc3ccc(F)cc3)C[C@H]2C1 [Example 13] |  |  |
|  | 17.8 nM | Oc1ccc(C(O)CN2C[C@@H]3C[C@@](O)(Cc4ccc(F)cc4)C[C@@H]3C2)nc1 (mixture of isomers) [Example 168, rac-(3aR,5r,6aS)-5-(4-fluorobenzy)-2-(2-hydroxy-2-(5-hydroxypyridin-2-yl)ethyl)octahydrocyclo-penta[c]pyrrol-5-ol] |  |  |
| > 10000 nM | ≥ 10000 nM | OC(CN1C[C@H]2CC(Cc3ccccc3)C[C@H]2C1)c1cccc(C(F)(F)F)c1 (mixture of isomers) [Example 309, rac-2-((3aR,6aS)-5-benzylhexahydrocyclo-penta[c]pyrrol-2(1H)-yl)-1-(3-(trifluoromethyl)phenyl) ethanol] |  |  |
| > 10000 nM |  | Cc1ccc(NC(=O)N2C[C@@H]3C[C@@](O)(c4ccccc4C)C[C@@H]3C2)cc1 [Example 9] |  |  |
| > 10000 nM | ≥ 10000 nM | OC(CN1C[C@@H]2C[C@@](O)(Cc3ccccc3)C[C@@H]2C1)c1cccc(C(F)(F)F)c1 (mixture of isomers) [Example 288, rac-(3aR,5r,6aS)-benzyl-2-(2-hydroxy-2-(3-(trifluoromethyl)phenyl)ethyl)octahydrocyclo-penta[c]pyrrol-5-ol] |  |  |
| 100 to 1000 nM | 748 nM | OC(CN1C[C@@H]2C[C@@](O)(Cc3ccccc3)C[C@@H]2C1)c1ccc2[nH]nnc2c1 (mixture of isomers) [Example 186, rac-(3aR,5R,6aS)-2-[2-(1H-1,2,3-benzotriazol-5-yl)-2-hydroxyethyl]-5-benzyl-octahydrocyclopenta[c] pyrrol-5-ol] |  |  |

| SMILES | IC50 [1] | IC50 [2] | IC50 (Binned Activity) | IC50 (NR2B NAM IC50) |
| --- | --- | --- | --- | --- |
| CC(C(=O)c1ccc(O)cc1)N1C[C@@H]2C[C@@](O)(c3ccccc3)C[C@@H]2C1 (mixture of isomers) [Example 90, rac-2-(5-hydroxy-5-phenylhexahydrocyclo-penta[c]pyrrol-2(1H)-yl)-1-(4-hydroxyphenyl)propan-1-one] | > 10000 nM | ≥ 10000 nM |  |  |
| COc1ccc(NC(=O)N2C[C@@H]3C[C@@](O)(c4cccc(OC)c4)C[C@@H]3C2)cc1 [Example 17, 5-hydroxy-5-(3-methoxyphenyl)-N-(4-methoxyphenyl)-octahydrocyclopenta[c] pyrrole-2-carboxamide] | > 10000 nM |  |  |  |
| CC(C(=O)c1ccc(O)cc1)N1C[C@H]2CC(Cc3ccccc3)C[C@H]2C1 (mixture of isomers) [Example 296, rac-2-((3aR,6aS)-5-benzylhexahydrocyclo-penta[c]pyrrol-2(1H)-yl)-1-(4-hydroxyphenyl)propan-1-one] | 100 to 1000 nM | 125 nM |  |  |
